# Legend:
# Assay in all cases: ANS Fluorescence Displacement Assay
# [1] = biological target: Fatty acid-binding protein, liver [T94A] (Homo sapiens, UniProt P07148, T94A)
# Method: (§1) A solution of the L-FABP (500 nM) and ANS (35 µM) was titrated with phytanic acid (0-6.4 µM) or fenofibrate (0-6 µM for the rat L-FABP and 0-4 µM for the human L-FABP) or fenofibric acid (0-300 µM for the rat L-FABP and 0-48 µM for the human L-FABP).
# [2] = biological target: T1, Fatty acid-binding protein, liver (Homo sapiens, UniProt P07148)
# T1 sequence (P07148 whole entry): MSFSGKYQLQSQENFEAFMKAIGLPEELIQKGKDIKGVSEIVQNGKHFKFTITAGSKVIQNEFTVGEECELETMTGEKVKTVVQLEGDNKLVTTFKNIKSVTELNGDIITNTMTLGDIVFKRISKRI
# Method: as §1
# [3] = biological target: T2, Fatty acid-binding protein, liver (Rattus norvegicus, UniProt P02692)
# T2 sequence (P02692 whole entry): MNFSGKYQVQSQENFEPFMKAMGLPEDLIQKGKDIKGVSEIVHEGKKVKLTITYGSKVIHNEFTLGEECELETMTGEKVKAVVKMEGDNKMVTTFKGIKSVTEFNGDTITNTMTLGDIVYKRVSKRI
# Method: as §1
# Chain of Fatty acid-binding protein, liver [T94A] (P07148 whole entry T94A): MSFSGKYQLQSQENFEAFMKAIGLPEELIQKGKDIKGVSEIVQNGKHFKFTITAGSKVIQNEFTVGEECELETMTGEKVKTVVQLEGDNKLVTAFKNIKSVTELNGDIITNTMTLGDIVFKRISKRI
compound,measurement,setting,value
CC(C)OC(=O)C(C)(C)Oc1ccc(C(=O)c2ccc(Cl)cc2)cc1 [Finofibrate],Ki,[1],15 nM
same,Ki,[2],15 nM
same,Ki,[3],100 nM
CC(C)(Oc1ccc(C(=O)c2ccc(Cl)cc2)cc1)C(=O)O [alpha-1081],Ki,[1],310 nM
same,Ki,[2],250 nM
same,Ki,[3],5800 nM
"CC(C)CCC[C@H](C)CCC[C@H](C)CCC[C@@H](C)CC(=O)O [3,7,11,15-tetramethylhexadecanoic acid]",Ki,[1],38 nM
same,Ki,[2],35 nM
same,Ki,[3],37 nM

# Source: BindingDB's records for doi:10.1021/bi401014k (Texas A&M University, 2013)
